No end group written: not given here.
How the values were obtained:
[1] = system: vasopressin deficient Brattleboro rats; assay: In vivo effect on urine output in vasopressin deficient Brattleboro rats; set-up: species or system rat; settings: 5 μg/kg subcutaneous; for time after injection at which urine excretion was back to original: Brattleboro rats (FIG. 3); for delay in urine excretion: first 8 h (FIG. 2)
Method: REAL-AVP was injected subcutaneously in animals (5 μg/kg) and urine was collected at different time points. […] AVP and Pal-AVP have similar effects with a delay in urine excretion of 4 h. A longer delay in urine excretion, up to 6 h, was observed after injection of REAL-AVP. […] The amount of urine excretion was back to original 24 h after injection of Pal-AVP and AVP. However, the effect of REAL-AVP lasted for 3 days (FIG. 3).

fasted diabetic rats = assay: Blood glucose level in fasted diabetic rats after oral administration; format: in vivo, rat; settings: 10 U/kg oral, water/oil microemulsion, in 9 hours (FIG. 6)
Method: The blood glucose level of rats was increased one week after inducing diabetes from an average of 100 mg/dl to 420 mg/dl (non-fasted rats). […] This is possibly due to the time required for REAL-insulin to be hydrolyzed and to release free insulin. After injection of insulin the fast blood glucose level of rats was back to original within 24 h. However, in the case of the rats treated with REAL-insulin, the drug effect on the fast blood glucose level lasted for 3 days (FIG. 5). Fasted diabetic rats were also administered by oral means 10 U/kg of insulin, REAL-insulin and placebo. Rats were fasted 16 h prior to oral administration. A water/oil microemulsion was used as the drug carrier.

[2] = system: hyperglycemic (diabetic) Sprague Dawley rats; assay: Blood glucose level in streptozotocin-induced diabetic rats after subcutaneous injection; format: in vivo, rat
Method: Diabetes was induced in Sprague Dawley rats using i.v. injection of 60 mg/kg, streptozotocin. Solutions of 0.5 Unit/ml insulin or REAL-insulin in borate buffer (pH 10, 0.1M) were prepared. Rats were fasted 16 h prior to the experiment and were injected subcutaneously 0.5 Unit/kg of insulin or REAL-insulin. The blood glucose level of rats was monitored at different time points for 9 h. After this time rats were fed and the blood glucose level was measured after 15 h of feeding. The rats were again fasted and blood glucose level was measured after 16 h. The period of fasting and feeding was continued for 3 days.

NC(=O)CC[C@@H]1NC(=O)[C@H](Cc2ccccc2)NC(=O)[C@H](Cc2ccc(O)cc2)NC(=O)[C@@H](N)CSSC[C@@H](C(=O)N2CCC[C@H]2C(=O)N[C@@H](CCCN=C(N)N)C(=O)NCC(N)=O)NC(=O)[C@H](CC(N)=O)NC1=O [AVP, Arginine vasopressin]
time after injection at which urine excretion was back to original [1]: 24 h
delay in urine excretion ([1]; Brattleboro rats): 4 h

Pal-AVP: Direct lipidization of AVP to palmitic acid (CYFQNCPRG; ends and bridges not checked; also: palmitoylated, position not given here; UniProt P01185 20-28, looked up)
effectiveness compared with REAL-AVP ([1]; Brattleboro rats): not as effective as REAL-AVP
time after injection at which urine excretion was back to original [1]: 24 h
delay in urine excretion ([1]; Brattleboro rats): 4 h

insulin
reduction of the blood glucose level (fasted diabetic rats): no significant reduction
time for fast blood glucose level to be back to original ([2]; 0.5 U/kg subcutaneous, diabetic rats (FIG. 5)): ≤ 24 h
change in blood glucose level within the first hour ([2]; subcutaneous, fasted diabetic rats (FIG. 4)): significant drop

Reference: patent US6590071B1, “Reversible aqueous pH sensitive lipidizing reagents, compositions and methods of use” (University of Southern California, priority 1998, dated 2003)
